Experimental data taken from US20250230193A1, “CYCLIC COMPOUND HAVING SELECTIVE KRAS INHIBITORY EFFECT ON HRAS AND NRAS” (CHUGAI SEIYAKU KABUSHIKI KAISHA, priority 2022, published 2025).
Where a SMILES comes first, the peptide text is derived from it. Bridges are numbered along the chain shown (N, C = ends). [ ]: non-standard residue; d: D form. The star is where a group is joined. hPhe(3-Cl-4-CF3) = N[C@@H](CCc1ccc(C(F)(F)F)c(Cl)c1)C(=O)O; NPrPhe(4-CF3) = CCCN[C@@H](Cc1ccc(C(F)(F)F)cc1)C(=O)O; 3Oxa8azabicyclo(3.2.1)octane = C1CC2COCC1N2*; NMeGly(cPent) = CN[C@H](C(=O)O)C1CCCC1; Hyp = O=C(O)[C@@H]1C[C@@H](O)CN1; Piperidide(4-Me) = CC1CCN(*)CC1; NMeD = CN[C@@H](CC(=O)O)C(=O)O; NMeL = CN[C@@H](CC(C)C)C(=O)O; Ac5c = NC1(C(=O)O)CCCC1; NEtG = CCNCC(=O)O; Sar = CNCC(=O)O

Tests used:
[1] = molecular target: GDP-bound NRAS wild-type protein (Homo sapiens, UniProt P01111); test: Binding to NRAS by surface plasmon resonance (SPR), Single Cycle Kinetics; conditions: SPR
Sequence of GDP-bound NRAS wild-type protein (P01111 whole entry): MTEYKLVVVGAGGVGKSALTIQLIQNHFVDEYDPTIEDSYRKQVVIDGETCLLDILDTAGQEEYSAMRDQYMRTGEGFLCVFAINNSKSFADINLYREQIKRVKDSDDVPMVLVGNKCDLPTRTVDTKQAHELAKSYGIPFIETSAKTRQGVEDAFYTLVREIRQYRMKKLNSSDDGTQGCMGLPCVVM

[2] = molecular target: GDP-bound HRAS wild-type protein (Homo sapiens, UniProt P01112); test: Binding to HRAS by surface plasmon resonance (SPR), Single Cycle Kinetics; conditions: SPR
Sequence of GDP-bound HRAS wild-type protein (P01112 whole entry): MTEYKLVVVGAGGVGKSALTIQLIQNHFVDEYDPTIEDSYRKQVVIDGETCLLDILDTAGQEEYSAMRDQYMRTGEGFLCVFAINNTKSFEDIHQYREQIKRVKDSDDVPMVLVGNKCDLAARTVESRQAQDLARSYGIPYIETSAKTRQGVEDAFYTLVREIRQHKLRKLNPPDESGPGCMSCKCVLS

[3] = KD ratio, GDP-bound NRAS wild-type vs GDP-bound KRAS wild-type
[4] = KD ratio, GDP-bound HRAS wild-type vs GDP-bound KRAS wild-type

CCCN1C(=O)CN(C)C(=O)CN(C)C(=O)[C@H]([C@@H](C)CC)NC(=O)[C@H](CC(C)C)N(C)C(=O)C[C@@H](C(=O)N2CCC(C)CC2)N(C)C(=O)[C@H](C2CCCC2)N(C)C(=O)C2(CCCC2)NC(=O)[C@@H]2CCCN2C(=O)[C@H](CCc2ccc(C(F)(F)F)c(Cl)c2)NC(=O)CN(C)C(=O)[C@@H]1Cc1ccc(C(F)(F)F)cc1 [PP0176] ([NMeL]I[Sar][Sar][NPrPhe(4-CF3)][Sar][hPhe(3-Cl-4-CF3)]P[Ac5c][NMeGly(cPent)][NMeD]-{Piperidide(4-Me)}; lactam N-11)
NRAS/KRAS (ratio of KD for GDP-bound NRAS wild-type to KD for KRAS) [1]: B (a compound having 3 or more and less than 10 is denoted as B)
HRAS/KRAS (ratio of KD for GDP-bound HRAS wild-type to KD for KRAS) [2]: C (A compound having a KD ratio of 0.1 or more and less than 3 is denoted as C)

CCCN1C(=O)CN(C)C(=O)CN(C)C(=O)[C@H]([C@@H](C)CC)NC(=O)[C@H](CC(C)C)N(C)C(=O)C[C@@H](C(=O)N2C3CCC2COC3)N(C)C(=O)[C@H](C2CCCC2)N(C)C(=O)C2(CCCC2)NC(=O)[C@@H]2CCCN2C(=O)[C@H](CCc2ccc(C(F)(F)F)c(Cl)c2)NC(=O)CN(C)C(=O)[C@@H]1Cc1ccc(C(F)(F)F)cc1 [PP0173] ([NMeL]I[Sar][Sar][NPrPhe(4-CF3)][Sar][hPhe(3-Cl-4-CF3)]P[Ac5c][NMeGly(cPent)][NMeD]-{3Oxa8azabicyclo(3.2.1)octane}; lactam N-11)
NRAS/KRAS (ratio of KD for GDP-bound NRAS wild-type to KD for KRAS) [1]: B (a compound having 3 or more and less than 10 is denoted as B)
HRAS/KRAS (ratio of KD for GDP-bound HRAS wild-type to KD for KRAS) [2]: C (A compound having a KD ratio of 0.1 or more and less than 3 is denoted as C)

CCCOC[C@H]1C(=O)N[C@@H]([C@@H](C)CC)C(=O)N(C)CC(=O)N(C)[C@H]2C/C=C\CCN(C2=O)[C@@H](Cc2ccc(C(F)(F)F)cc2)C(=O)N(C)CC(=O)N[C@@H](CCc2ccc(C(F)(F)F)c(OC)c2)C(=O)N2C[C@H](OCC)C[C@H]2C(=O)NC2(CCC2)C(=O)N(C)[C@@H](C2CCCC2)C(=O)N(C)[C@H](C(=O)N(C)CCC)CC(=O)N1C [PP2017]
NRAS/KRAS (ratio of KD value for NRAS to KD value for KRAS) [1, 3]: A (a compound having 10 or more and less than 20 is denoted as A)
HRAS/KRAS (ratio of KD value for HRAS to KD value for KRAS) [2, 4]: A (a compound having 10 or more and less than 20 is denoted as A)

CCCN1C(=O)CN(C)C(=O)CN(C)C(=O)[C@H]([C@@H](C)CC)NC(=O)[C@@H]2CCCCCCOc3ccc(cc3)C[C@H]1C(=O)N(C)CC(=O)N[C@@H](CCc1cc(F)c(C(F)(F)F)c(F)c1)C(=O)N1C[C@H](OCC)C[C@H]1C(=O)NC1(CCCC1)C(=O)N(C)[C@@H](C1CCCC1)C(=O)N(C)[C@H](C(=O)N(C)C)CC(=O)N2C [PP0896]
NRAS/KRAS (ratio of KD value with respect to NRAS to KD value with respect to KRAS) [1, 3]: C (A compound having a KD ratio of 0.1 or more and less than 3 is denoted as C)
HRAS/KRAS (ratio of KD value with respect to HRAS to KD value with respect to KRAS) [2, 4]: C (A compound having a KD ratio of 0.1 or more and less than 3 is denoted as C)

CCO[C@@H]1C[C@H]2C(=O)NC3(CC(C)(C)C3)C(=O)N(C)[C@@H](C(CC)CC)C(=O)N(C)[C@H](C(=O)N(C)C)CC(=O)N(C)[C@@H](CC3CC3)C(=O)N[C@@H]([C@@H](C)CC)C(=O)N(C)CC(=O)N(C)[C@H]3C/C=C\CCN(C3=O)[C@@H](CC3CCC(F)(F)CC3)C(=O)N(C)CC(=O)N[C@@H](CCc3cc(F)c(C(F)(F)F)c(F)c3)C(=O)N2C1 [PP2485]
NRAS/KRAS (ratio of KD value with respect to NRAS to KD value with respect to KRAS) ([1]; GDP-bound NRAS wild-type vs GDP-bound KRAS wild-type): A (a compound having 10 or more and less than 20 is denoted as A)
HRAS/KRAS (ratio of KD value with respect to HRAS to KD value with respect to KRAS) ([2]; GDP-bound HRAS wild-type vs GDP-bound KRAS wild-type): A (a compound having 10 or more and less than 20 is denoted as A)

CCCN1C(=O)CN(C)C(=O)CN(CC)C(=O)[C@H]([C@@H](C)CC)NC(=O)[C@H](CC(C)C)N(C)C(=O)C[C@@H](C(=O)N(C)C)NC(=O)[C@H](C2CCCC2)N(C)C(=O)C2(CCCC2)NC(=O)[C@@H]2C[C@@H](OCC)CN2C(=O)[C@H](CCc2ccc(C(F)(F)F)c(Cl)c2)NC(=O)CN(C)C(=O)[C@@H]1Cc1ccc(C(F)(F)F)cc1 [PP0371] ([NMeL]I[NEtG][Sar][NPrPhe(4-CF3)][Sar][hPhe(3-Cl-4-CF3)][Hyp](Et)[Ac5c][NMeGly(cPent)]D-NMe2; lactam N-11)
NRAS/KRAS (ratio of KD for GDP-bound NRAS wild-type to KD for KRAS) [1]: B (a compound having 3 or more and less than 10 is denoted as B)
HRAS/KRAS (ratio of KD for GDP-bound HRAS wild-type to KD for KRAS) [2]: C (A compound having a KD ratio of 0.1 or more and less than 3 is denoted as C)

CCO[C@@H]1C[C@H]2C(=O)NC3(CCC3)C(=O)N(C)[C@@H](C3CCCC3)C(=O)N(C)[C@H](C(=O)N(C)C)CC(=O)N(C)[C@@H](Cc3ccccc3C#N)C(=O)N[C@@H]([C@@H](C)CC)C(=O)N(C)CC(=O)N(C)[C@H]3CCCCCN(C3=O)[C@@H](Cc3ccc(F)cc3)C(=O)N(C)CC(=O)N[C@@H](CCc3cc(F)c(C(F)(F)F)c(F)c3)C(=O)N2C1 [PP1155]
NRAS/KRAS (ratio of KD value with respect to NRAS to KD value with respect to KRAS) [1, 3]: B (a compound having 3 or more and less than 10 is denoted as B)
HRAS/KRAS (ratio of KD value with respect to HRAS to KD value with respect to KRAS) [2, 4]: B (a compound having 3 or more and less than 10 is denoted as B)
